The data set is described as follows: in vitro. It is filed as cell-based. As to conditions: African green monkey. As to the method:
Qualitative assessments of cytotoxicity were done visually by inspecting the cells in the primary screening assays. For the quantitative assays, cells were plated in 96-well plates at 1.0×10^4 per well. The next day the compounds were added at 0.78 to 100 μM in a final concentration of 1% (v/v) DMSO, and the cells were incubated for 24 hours under conditions identical to those employed for the viral replication inhibition assays. Mitochondrial toxicity was measured by incubating the cells with 0.25 mg/mL thiazolyl blue tetrazolium bromide (MTT, SigmaAldrich Chemical Co.), the cultures were incubated for 60 min, metabolites were solubilized in acidic isopropanol, and absorbance was read at 570 nm. CC50 values were calculated by non-linear curve fitting using GraphPad Prism.
A quantitative toxicity measurement was conducted. Toxicity was assessed by measuring release of intracellular proteases into the culture medium due to cellular lysis. Cells were plated in 96-well plates at 1.0×10^4 per well. The next day compound was added in concentrations ranging from 0.78 to 100 μM in a final concentration of 1% (v/v) DMSO. The cells were incubated for 24 hours under conditions identical to those employed for the viral replication inhibition assays, and then […] according to the manufacturer's instructions. […]

`Cc1cc(CC(C)CC(C)(C)C)n(O)c(=O)c1` (stereo not shown) [#191, Piroctone olamine] had a CC50 at 24 h of over 100 µM.

(Values after US11191754B2, “Inhibitors of nucleotidyl transferases and uses in herpes and hepatitis viral infections therefor” (Saint Louis University, priority 2015, dated 2021).)
